The values below come from article PMC12040169 (PLOS Biology, 2025).

A short description of the series: in vitro. The following applies: human, hela cells, % viability.

The term viability denotes a read-out of living cells in per cent, often relative to untreated cells.

`CN1Cc2ccccc2CC1C(=O)N1CCc2ncc(Cl)cc2C1` (centres unmarked) [CBK282568]: the viability at 28.5 h, 10 µM stood at 85.5%.

In the case of `CC(C)N1CCC(CNC(=O)Cn2ccc3ccc(F)cc32)CC1` [CBK282571], the viability at 28.5 h, 10 µM was determined as 89.9%.

For `C=Cn1ncc(CN2CCc3[nH]c4ccc(OCC)cc4c3C2)c1C` [CBK282574], the viability at 28.5 h, 10 µM came to 89.7%. For `Cc1nc(C)n(C(C)CNC(=O)Cc2coc3cc(C)c(C)cc23)n1` (centres unmarked) [CBK282577], the viability at 28.5 h, 10 µM was found to be 106%. The value for `Cc1ccn(CCNC(=O)Cc2coc3cc(C)c(C)cc23)n1` [CBK282578] was 107%; that for `CC1(C(=O)Nc2cnn(Cc3ccc(F)cc3)c2)CCCO1` (centres unmarked) [CBK282585] was 104%.

For the compound `Cc1nc(-c2ccccc2)c(CC(=O)NC2CCCOC2)s1` (centres unmarked) [CBK282586], the viability at 28.5 h, 10 µM turned out to be 93.4%. With `CC(=O)N1CCCc2cc(C(O)CN3CCC(C)CC3)ccc21` (centres unmarked) [CBK282588], the viability at 28.5 h, 10 µM was 87.3%. The value for `Cc1c(CN(Cc2ccc(F)cc2)CC2CCCO2)cnn1C` (centres unmarked) [CBK282589] was 86%; that for `CC(=O)NC1CCN(CC2(c3cccc(F)c3)CCCC2)CC1` [CBK282590] was 95.7%. `COC(=O)CCn1c(-c2ccncc2)cc2cccnc21` [CBK282592]: the viability at 28.5 h, 10 µM was determined as 65.2%. The value for `COC(=O)CCn1c(-c2cccnc2C)cc2cccnc21` [CBK282593] was 105%; that for `CC(C)n1nccc1C(=O)NC1CCN(Cc2cccc(F)c2)CC1` [CBK282596] was 84.5%. With `OCCN(Cc1cccs1)Cc1c[nH]nc1-c1cccs1` [CBK282599] the figure was 86%; with `CCCn1nc(C)c(CN(C)Cc2n[nH]c3c2CCCC3)c1C` [CBK282600], 95.4%.

As to `CN1CCC(CNC(=O)C2(c3ccccc3F)CC2)(N(C)C)CC1` [CBK282604], the viability at 28.5 h, 10 µM was found to be 91.6%. Turning to `Cc1ccn(CCNC(=O)c2[nH]c3c(Cl)cccc3c2C)n1` [CBK282608], the viability at 28.5 h, 10 µM was 97.9%.

For `Cc1ccc2c(c1)c(C)c(C(=O)NCCn1ccc(C)n1)n2C` [CBK282609], the viability at 28.5 h, 10 µM came out at 106%. With `CN1C[C@]2(CC[C@@H](C(=O)NC3CC3)CC2)Oc2ccccc2C1=O` [CBK282610] the figure was 102%; with `Cc1nc(C)n(C(C)CNC(=O)Cn2ccc3ccc(F)cc32)n1` (centres unmarked) [CBK282612], 95.5%.

Consider `Cc1cc2occ(CC(=O)NCC(C)n3cncn3)c2cc1C` (centres unmarked) [CBK282614], for which the viability at 28.5 h, 10 µM amounted to 101%.

As for `CN1CCC(CN(C)Cc2ccc3cccc(Cl)c3n2)C1` (centres unmarked) [CBK282615], the viability at 28.5 h, 10 µM is 90.2%. With `Cc1c(CN(C)CC2CCN(C)C2)cnn1Cc1ccccc1` (centres unmarked) [CBK282616] the figure was 105%. Consider `C=C(C)CN1CCN(C(=O)c2ccnc3ccc(Cl)cc23)CC1` [CBK282617], for which the viability at 28.5 h, 10 µM is 111%. With `CC(C)(C)NC(=O)CCn1c(-c2ccncc2)cc2cccnc21` [CBK282620] the figure was 95.4%; with `Cc1cc2cc(C(=O)NCC3(N(C)C)CCN(C)CC3)ccc2o1` [CBK282623], 90.2%. The value for `Cc1cc2cc(C(=O)NCCCN3Cc4ccccc4C3)ccc2o1` [CBK282624] was 97.4%.

For `C=C(C)CN1CCN(C(=O)c2c(C)oc3ccc(O)cc23)CC1` [CBK282626], the viability at 28.5 h, 10 µM amounted to 95%. The value for `Cc1oc2ccc(O)cc2c1C(=O)N(C)C(C)Cc1ccccn1` (centres unmarked) [CBK282627] was 96.2%. As to `Cc1nc2ccc(C(=O)NC(C)(C)CN3CCCC(C)C3)cc2[nH]1` (centres unmarked) [CBK282629], the viability at 28.5 h, 10 µM was found to be 85.3%.

Take `CS(=O)(=O)N1CC=CC1C(=O)NCCCc1ccc(F)cc1` (centres unmarked) [CBK282631]: the viability at 28.5 h, 10 µM is 85.5%. With `COC(=O)CCn1c(-c2ccccn2)cc2cccnc21` [CBK282634] the figure was 89.8%; with `C=CCC1(CC=C)CCN1C(=O)c1sc2ncn(C)c(=O)c2c1C` [CBK282637], 84.7%. The value for `C=C(C)CN1CCN(C(=O)C2Cc3cc(Cl)ccc3O2)CC1` (centres unmarked) [CBK282639] was 89%; that for `CN(CCN1CCCCC1)C(=O)C1Cc2cc(Cl)ccc2O1` (centres unmarked) [CBK282640] was 95.4%. For `CC(C)N1CCC(CNC(=O)c2cccc(N3CCCC3=O)c2)CC1` [CBK282641], the viability at 28.5 h, 10 µM stood at 104%. The value for `Cc1ccn(CCNC(=O)c2cccc(N3CCCC3=O)c2)n1` [CBK282642] was 105%. Consider `CC(C)c1cc(C(=O)NC(C)(C)CN2CCCCC2C)n(C)n1` (centres unmarked) [CBK282644], for which the viability at 28.5 h, 10 µM is 96.4%. Turning to `CN(C)CC(C)(C)CN1C2CCC1CC(O)(c1ccccc1F)C2` (centres unmarked) [CBK282648], the viability at 28.5 h, 10 µM was determined as 94.4%. With `Cn1cncc1CN1C2CCC1CC(O)(c1ccccc1F)C2` (centres unmarked) [CBK282649] the figure was 107%.

Turning to `CCC(CC(=O)NCc1c(C)n[nH]c1C)c1c[nH]c2ccccc12` (centres unmarked) [CBK282651], the viability at 28.5 h, 10 µM came to 87.1%. The value for `O=C(NCCCc1ccccn1)c1cc(-c2cccs2)no1` [CBK282652] was 63.9%; that for `Cc1cccc(-c2noc(C)c2C(=O)NCCn2ccc(C)n2)c1` [CBK282656] was 96.4%; that for `CCC(NC(=O)CCN1Cc2ccccc2C1=O)c1ccc(F)cc1` (centres unmarked) [CBK282657] was 104%. The value for `CCOc1ccc2[nH]c3c(c2c1)CN(C(=O)C1(C)CCCO1)CC3` (centres unmarked) [CBK282659] was 86.2%. With `CC1(C(=O)N2CCc3onc(-c4ccccc4F)c3C2)CCCO1` (centres unmarked) [CBK282660] the figure was 88.1%; with `C=CCC1(CC=C)CCN1C(=O)Cc1c(C)nc(SC)[nH]c1=O` [CBK282661], 86.9%; with `CCn1cc(CN2C3CCC2CC(O)(c2ccccc2F)C3)cn1` (centres unmarked) [CBK282662], 86.5%.

Regarding `CCn1ncc(CN2C3CCC2CC(O)(c2ccccc2F)C3)c1C` (centres unmarked) [CBK282663], the viability at 28.5 h, 10 µM turned out to be 85%. The value for `CCn1cc(CC(=O)NCCn2ccc(C)n2)c2ccccc21` [CBK282670] was 96.7%; that for `CCc1cccc2c(CC(=O)N(C)CCN(C)C)c(C)[nH]c12` [CBK282673] was 102%; that for `Cc1ccc2[nH]c(C)c(CC(=O)N(C)CCN(C)C)c2c1` [CBK282674] was 105%. As for `Cc1nn(CCC(=O)NC(C)(C)CN2CCCC(C)C2)c(C)c1C` (centres unmarked) [CBK282676], the viability at 28.5 h, 10 µM was determined as 91.4%.

As for `O=C(CSc1nccc2ccccc12)NC1CCCOC1` (centres unmarked) [CBK282677], the viability at 28.5 h, 10 µM amounted to 85.2%. `Cc1ccn(CCNC(=O)CSc2nccc3ccccc23)n1` [CBK282678]: the viability at 28.5 h, 10 µM was 104%. The value for `Cc1ccn(CCNC(=O)c2cc(-c3cccs3)no2)n1` [CBK282679] was 78.9%; that for `CN(C)[C@@H]1CN(C(=O)C2CC2)C[C@H]1c1cn(C)c2ccccc12` [CBK282681] was 110%; that for `CC(C)N(C(=O)Cn1c(-c2ccco2)cc2cccnc21)C(C)C` [CBK282682] was 99.4%. The value for `CC(C)c1cc(C(=O)NCCN2CCc3ccccc32)n(C)n1` [CBK282685] was 86.7%; that for `CC(C)N1CCCC(CNC(=O)C2Cc3cc(Cl)ccc3O2)C1` (centres unmarked) [CBK282686] was 92.8%.

For the compound `CC1CCCCN1C(=O)CCn1c(-c2ccncc2)cc2cccnc21` (centres unmarked) [CBK282689], the viability at 28.5 h, 10 µM was found to be 105%. With `Cc1oc2ccc(O)cc2c1C(=O)N(C)CCOc1ccccc1` [CBK282696] the figure was 111%; with `CCOc1ccc2[nH]c(C(=O)N(C)CCN3CCCCC3)c(C)c2c1` [CBK282699], 86.3%; with `CC(C)C(NC(=O)C1C=CCN1S(C)(=O)=O)c1cccs1` (centres unmarked) [CBK282701], 82.5%. With `CC(=O)N1c2ccc(NC(=O)C3(C)CCCO3)cc2CC1C` (centres unmarked) [CBK282702] the figure was 98.5%; with `O=C(Cc1ccc2c(c1)CCC2)N1CCCCC1CN1CCOCC1` (centres unmarked) [CBK282704], 88.8%. The value for `CC(C(=O)N1CCC(c2cc3cccnc3[nH]2)CC1)N1CCCC1=O` (centres unmarked) [CBK282705] was 105%; that for `CCC(C(=O)NCC1CCCN(C(C)C)C1)n1cnc2ccccc21` (centres unmarked) [CBK282706] was 88.6%. For the compound `CC(NC(=O)c1cccc(-n2cnnc2)c1)c1ccc2c(c1)CCC2` (centres unmarked) [CBK282707], the viability at 28.5 h, 10 µM was found to be 91.9%.

Take `Cc1ccn(CCNC(=O)Cn2c3c(c4ccccc42)CCC3)n1` [CBK282708]: the viability at 28.5 h, 10 µM was 86.5%.

On to `O=C(NCCCc1ccc(F)cc1)c1cccc(-n2cnnc2)c1` [CBK282713], for which the viability at 28.5 h, 10 µM amounted to 102%. With `O=C1CC2(CCNCC2)Oc2c1ccc1ccccc21` [CBK282714] the figure was 93%.

As to `Cc1ccc2c(c1)C(=O)CC1(CCC3C(C(=O)NC4CCCC4)C31)O2` (centres unmarked) [CBK282716], the viability at 28.5 h, 10 µM is 83.4%. For `c1csc(-c2cc3cccnc3n2CCN2CCOCC2)c1` [CBK282718], the viability at 28.5 h, 10 µM amounted to 80.5%.

With `C=CCNC(=O)Cn1c(-c2ccco2)cc2cccnc21` [CBK282719], the viability at 28.5 h, 10 µM turned out to be 82.6%. The value for `COCCNC(=O)Cn1c(-c2ccco2)cc2cccnc21` [CBK282720] was 80.6%; that for `Clc1ccc(C2(N3CCC(N4CCOCC4)CC3)CC2)cc1` [CBK282722] was 90.8%. With `Cc1[nH]c2c(C)cccc2c1CC(=O)N(C)CCN(C)C` [CBK282724] the figure was 82.6%. With `Cc1nc(-c2ccccc2)c(CC(=O)N(C)CCN(C)C)s1` [CBK282725] the figure was 83.3%. As for `Cc1[nH]c2ccc(F)cc2c1CC(=O)N(C)CCN(C)C` [CBK282726], the viability at 28.5 h, 10 µM was 84.1%.

For the compound `Cc1cc(C)c2[nH]c(CC(=O)N(C)CCN(C)C)nc2c1` [CBK282727], the viability at 28.5 h, 10 µM worked out at 74.3%.

With `CN(CCN1CCCCC1)C(=O)C1CC(=O)Nc2ccccc21` (centres unmarked) [CBK282729], the viability at 28.5 h, 10 µM amounted to 105%. The value for `Cc1cc(C)c2[nH]c(C)c(CC(=O)N(C)CCN(C)C)c2c1` [CBK282731] was 82.5%.
